Test results: patent publication EP1077981B1, “NOVEL CEPHALOSPORIN COMPOUNDS, PROCESSES FOR PREPARATION THEREOF AND ANTIMICROBIAL COMPOSITIONS CONTAINING THE SAME” (LG CHEMICAL LIMITED, priority 1998, dated 1999)
Converted amounts (≈) assume the structure as drawn. Like-named read-outs stand apart in the source and are kept apart here.

Legend:
Assay in all cases: MIC against standard strains (agar dilution)
Type in all cases: cell-based
[1] = test system: Serratia marcescens 1826E
Protocol: (§1) Test example 1: Measurement of Minimum Inhibitory Concentration (MIC)
(§2) Specifically, test compounds were diluted by 2-fold dilution method and dispersed in Mueller-Hinton agar medium and then, 2µℓ of test strains were inoculated at a concentration of 10^7 cfu(colony forming unit)/mℓ on the medium and incubated for 20 hours at 37°C.

[2] = test system: Pseudomonas aeruginosa 6065Y
Protocol: as §1, §2

[3] = test system: Citrobacter diversus 2046E; conditions: Citrobacter koseri
Protocol: as §1, §2

[4] = test system: Escherichia coli 3190Y; conditions: Escherichia coli, 3190Y, 20 h
Protocol: as §1, §2

[5] = test system: Staphylococcus aureus 241
Protocol: as §1, §2

[6] = test system: Moraxella catarrhalis 25240
Protocol: as §1, §2

[7] = test system: Staphylococcus aureus 6538p
Protocol: as §1, §2

[8] = test system: Proteus vulgaris 6059
Protocol: as §1, §2

[9] = test system: Moraxella catarrhalis C2431
Protocol: as §1, §2

[10] = test system: Klebsiella pneumoniae 2011E
Protocol: as §1, §2

[11] = test system: Escherichia coli TEM1 1193E; conditions: TEM11193E, 20 h
Protocol: as §1, §2

[12] = test system: Enterococcus faecalis 29212
Protocol: as §1, §2

[13] = test system: Escherichia coli 851E; conditions: Escherichia coli, 851E, 20 h
Protocol: as §1, §2

[14] = test system: Escherichia coli 10536
Protocol: as §1, §2

[15] = test system: Escherichia coli TEM9 2639E; conditions: TEM92639E
Protocol: as §1, §2

[16] = test system: Enterobacter cloacae IND+VE 1194E
Protocol: as §1, §2

[17] = test system: Staphylococcus aureus 77
Protocol: as §1, §2

[18] = test system: Klebsiella aerogenes K1+ 1082E
Protocol: as §1, §2

[19] = test system: Pseudomonas aeruginosa 1912E
Protocol: as §1, §2

[20] = test system: Staphylococcus aureus giorgio
Protocol: as §1, §2

[21] = test system: Enterobacter cloacae P99
Protocol: as §1, §2

[22] = test system: Salmonella typhimurium 14028; conditions: Salmonella enterica
Protocol: as §1, §2

[23] = test system: Klebsiella aerogenes SHV-1 1976E; conditions: Klebsiella aerogenes, 20 h
Protocol: as §1, §2

[24] = test system: Escherichia coli TEM3 3455E; conditions: TEM33455E, 20 h
Protocol: as §1, §2

[25] = test system: Citrobacter freundii 8090
Protocol: as §1, §2

[26] = test system: Staphylococcus epidermidi 887E
Protocol: as §1, §2

[27] = test system: Morganella morganii 1375E
Protocol: as §1, §2

[28] = test system: Acinetobacter calcoaceticu 15473
Protocol: as §1, §2

[29] = Serratia marcescens, 1826E, 20 h
[30] = Pseudomonas aeruginosa, 6065Y, 20 h
[31] = Staphylococcus aureus, 241, 20 h
[32] = Moraxella catarrhalis, 25240, 20 h
[33] = Staphylococcus aureus, 6538P, 20 h
[34] = Moraxella catarrhalis, C2431, 20 h
[35] = Klebsiella pneumoniae, 2011E, 20 h
[36] = Enterococcus faecalis, 29212, 20 h
[37] = Staphylococcus aureus, 77, 20 h
[38] = Pseudomonas aeruginosa, 1912E, 20 h
[39] = Enterobacter cloacae, P99, 20 h
[40] = Citrobacter freundii, 8090, 20 h
[41] = Morganella morganii, 1375E, 20 h

CCO/N=C(\C(=O)NC1C(=O)N2C(C(=O)O)=C(Sc3cc(N)nc(N)n3)CSC12)c1csc(N)n1 (stereo not drawn) [compound 27, 7-[(Z)-2-(2-amino-thiazol-4-yl)-2-ethoxyiminoacetylamino]-3-(2,6-diamino-pyrimidin-4-ylsulfanyl)-8-oxo-5-thia-1-aza-bi cyclo[4,2,0]oct-2-ene-2-carboxylic acid]
MIC ([1]; Serratia marcescens 1826E, Mueller-Hinton agar, 20 hours at 37°C, read-out: MIC): 4 µg/mL (≈ 7.44 µM)
MIC ([2]; Pseudomonas aeruginosa 6065Y, Mueller-Hinton agar, 20 hours at 37°C, read-out: MIC): 64 µg/mL (≈ 119 µM)
MIC ([3]; Citrobacter diversus 2046E, Mueller-Hinton agar, 20 hours at 37°C, read-out: MIC): 64 µg/mL (≈ 119 µM)
MIC [4]: 0.13 µg/mL (≈ 0.242 µM)
MIC ([5]; Staphylococcus aureus 241, Mueller-Hinton agar, 20 hours at 37°C, read-out: MIC): 8 µg/mL (≈ 14.9 µM)
MIC ([6]; Moraxella catarrhalis 25240, Mueller-Hinton agar, 20 hours at 37°C, read-out: MIC): ≤ 0.008 µg/mL
MIC ([7]; Staphylococcus aureus 6538p, Mueller-Hinton agar, 20 hours at 37°C, read-out: MIC): 2 µg/mL (≈ 3.72 µM)
MIC ([8]; Proteus vulgaris 6059, Mueller-Hinton agar, 20 hours at 37°C, read-out: MIC): 0.063 µg/mL (≈ 0.117 µM)
MIC ([9]; Moraxella catarrhalis C2431, Mueller-Hinton agar, 20 hours at 37°C, read-out: MIC): ≤ 0.008 µg/mL
MIC ([10]; Klebsiella pneumoniae 2011E, Mueller-Hinton agar, 20 hours at 37°C, read-out: MIC): 2 µg/mL (≈ 3.72 µM)
MIC [11]: 0.5 µg/mL (≈ 0.93 µM)
MIC ([12]; Enterococcus faecalis 29212, Mueller-Hinton agar, 20 hours at 37°C, read-out: MIC): 64 µg/mL (≈ 119 µM)
MIC [13]: 0.25 µg/mL (≈ 0.465 µM)
MIC ([14]; Escherichia coli 10536, Mueller-Hinton agar, 20 hours at 37°C, read-out: MIC): 0.25 µg/mL (≈ 0.465 µM)
MIC ([15]; Escherichia coli TEM9 2639E, Mueller-Hinton agar, 20 hours at 37°C, read-out: MIC): 64 µg/mL (≈ 119 µM)
MIC ([16]; Enterobacter cloacae IND+VE 1194E, Mueller-Hinton agar, 20 hours at 37°C, read-out: MIC): > 64 µg/mL
MIC ([17]; Staphylococcus aureus 77, Mueller-Hinton agar, 20 hours at 37°C, read-out: MIC): 4 µg/mL (≈ 7.44 µM)
MIC ([18]; Klebsiella aerogenes K1+ 1082E, Mueller-Hinton agar, 20 hours at 37°C, read-out: MIC): > 64 µg/mL
MIC ([19]; Pseudomonas aeruginosa 1912E, Mueller-Hinton agar, 20 hours at 37°C, read-out: MIC): 8 µg/mL (≈ 14.9 µM)
MIC ([20]; Staphylococcus aureus giorgio, Mueller-Hinton agar, 20 hours at 37°C, read-out: MIC): 0.5 µg/mL (≈ 0.93 µM)
MIC ([21]; Enterobacter cloacae P99, Mueller-Hinton agar, 20 hours at 37°C, read-out: MIC): > 64 µg/mL
MIC ([22]; Salmonella typhimurium 14028, Mueller-Hinton agar, 20 hours at 37°C, read-out: MIC): 1 µg/mL (≈ 1.86 µM)
MIC [23]: 0.5 µg/mL (≈ 0.93 µM)
MIC [24]: 16 µg/mL (≈ 29.8 µM)
MIC ([25]; Citrobacter freundii 8090, Mueller-Hinton agar, 20 hours at 37°C, read-out: MIC): 2 µg/mL (≈ 3.72 µM)
MIC ([26]; Staphylococcus epidermidi 887E, Mueller-Hinton agar, 20 hours at 37°C, read-out: MIC): 8 µg/mL (≈ 14.9 µM)
MIC ([27]; Morganella morganii 1375E, Mueller-Hinton agar, 20 hours at 37°C, read-out: MIC): 0.25 µg/mL (≈ 0.465 µM)
MIC ([28]; Acinetobacter calcoaceticu 15473, Mueller-Hinton agar, 20 hours at 37°C, read-out: MIC): 32 µg/mL (≈ 59.5 µM)

C#CCO/N=C(\C(=O)NC1C(=O)N2C(C(=O)O)=C(Sc3cc(N)nc(N)n3)CSC12)c1csc(N)n1 (stereo not drawn) [compound 28, 7-[(Z)-2-(2-amino-thiazol-4-yl)-2-propyn-2-yioxyimino-acetylamino]-3-(2,6-diamino-pyrimidin-4-ylsulfanyl)-8-oxo-5-thia1-aza-bicyclo[4,2,0]oct-2-ene-2-carboxylic acid]
MIC [1, 29]: 8 µg/mL (≈ 14.6 µM)
MIC [2, 30]: 64 µg/mL (≈ 117 µM)
MIC ([3]; 2046E, 20 h): > 64 µg/mL
MIC [4]: 0.13 µg/mL (≈ 0.237 µM)
MIC [5, 31]: 8 µg/mL (≈ 14.6 µM)
MIC [6, 32]: 0.016 µg/mL (≈ 0.0292 µM)
MIC [7, 33]: 1 µg/mL (≈ 1.83 µM)
MIC ([8]; Proteus vulgaris, 6059, 20 h): 0.031 µg/mL (≈ 0.0566 µM)
MIC [9, 34]: 0.016 µg/mL (≈ 0.0292 µM)
MIC [10, 35]: 2 µg/mL (≈ 3.65 µM)
MIC [11]: 0.5 µg/mL (≈ 0.913 µM)
MIC [12, 36]: 32 µg/mL (≈ 58.4 µM)
MIC [13]: 0.25 µg/mL (≈ 0.457 µM)
MIC ([14]; Escherichia coli, 10536, 20 h): 0.25 µg/mL (≈ 0.457 µM)
MIC ([15]; Escherichia coli, 20 h): 64 µg/mL (≈ 117 µM)
MIC ([16]; Enterobacter cloacae, 20 h): > 64 µg/mL
MIC [17, 37]: 4 µg/mL (≈ 7.3 µM)
MIC ([18]; Klebsiella aerogenes, 20 h): > 64 µg/mL
MIC [19, 38]: 32 µg/mL (≈ 58.4 µM)
MIC ([20]; Staphylococcus aureus, 20 h): 0.5 µg/mL (≈ 0.913 µM)
MIC [21, 39]: > 64 µg/mL
MIC ([22]; TYPHIMURIUM, 20 h): 1 µg/mL (≈ 1.83 µM)
MIC [23]: 0.5 µg/mL (≈ 0.913 µM)
MIC [24]: 16 µg/mL (≈ 29.2 µM)
MIC [25, 40]: 2 µg/mL (≈ 3.65 µM)
MIC ([26]; Staphylococcus, 887E, 20 h): 8 µg/mL (≈ 14.6 µM)
MIC [27, 41]: 0.25 µg/mL (≈ 0.457 µM)
MIC ([28]; Acinetobacter, 15473, 20 h): 32 µg/mL (≈ 58.4 µM)

CCO/N=C(\C(=O)NC1C(=O)N2C(C(=O)O)=C(Sc3cc(N)nc(N)n3)CSC12)c1nsc(N)n1 (stereo not drawn) [compound 29]
MIC [1, 29]: 4 µg/mL (≈ 7.43 µM)
MIC [2, 30]: > 64 µg/mL
MIC ([3]; 2046E, 20 h): > 64 µg/mL
MIC [4]: 0.063 µg/mL (≈ 0.117 µM)
MIC [5, 31]: 8 µg/mL (≈ 14.9 µM)
MIC [6, 32]: ≤ 0.008 µg/mL
MIC [7, 33]: 2 µg/mL (≈ 3.71 µM)
MIC ([8]; Proteus vulgaris, 6059, 20 h): 0.063 µg/mL (≈ 0.117 µM)
MIC [9, 34]: ≤ 0.008 µg/mL
MIC [10, 35]: 2 µg/mL (≈ 3.71 µM)
MIC [11]: 1 µg/mL (≈ 1.86 µM)
MIC [12, 36]: 64 µg/mL (≈ 119 µM)
MIC [13]: 0.25 µg/mL (≈ 0.464 µM)
MIC ([14]; Escherichia coli, 10536, 20 h): 0.13 µg/mL (≈ 0.241 µM)
MIC ([15]; Escherichia coli, 20 h): 64 µg/mL (≈ 119 µM)
MIC ([16]; Enterobacter cloacae, 20 h): > 64 µg/mL
MIC [17, 37]: 4 µg/mL (≈ 7.43 µM)
MIC ([18]; Klebsiella aerogenes, 20 h): > 64 µg/mL
MIC [19, 38]: 8 µg/mL (≈ 14.9 µM)
MIC ([20]; Staphylococcus aureus, 20 h): 1 µg/mL (≈ 1.86 µM)
MIC [21, 39]: > 64 µg/mL
MIC ([22]; TYPHIMURIUM, 20 h): 1 µg/mL (≈ 1.86 µM)
MIC [23]: 1 µg/mL (≈ 1.86 µM)
MIC [24]: 32 µg/mL (≈ 59.4 µM)
MIC [25, 40]: 2 µg/mL (≈ 3.71 µM)
MIC ([26]; Staphylococcus, 887E, 20 h): 8 µg/mL (≈ 14.9 µM)
MIC [27, 41]: 0.25 µg/mL (≈ 0.464 µM)
MIC ([28]; Acinetobacter, 15473, 20 h): 32 µg/mL (≈ 59.4 µM)
